Assay results published in ChEMBL document CHEMBL6074711, “Design, Synthesis, and Activity Evaluation of C-23-Modified 5-O-Mycaminosyltylonolide Derivatives” (ACS Med Chem Lett, 2024).
Values after ≈ are worked out from the molar mass of the structure shown.

Experiments:
Assay type in all cases: functional
Staphylococcus aureus [1] = assay: Antibacterial activity against Staphylococcus aureus ATCC25923 incubated for 16 to 20 hrs by broth microdilution method; settings: time 16-20 hrs
Escherichia coli [2] = assay: Antibacterial activity against Escherichia coli ATCC25922 incubated for 16 to 20 hrs by broth microdilution method; settings: time 16-20 hrs
Enterococcus faecalis [3] = assay: Antibacterial activity against Enterococcus faecalis ATCC29212 incubated for 16 to 20 hrs by broth microdilution method; settings: time 16-20 hrs
[4] = tested on: Stenotrophomonas maltophilia; assay: Antibacterial activity against Stenotrophomonas maltophilia ATCC17808 incubated for 16 to 20 hrs by broth microdilution method; settings: time 16-20 hrs
Staphylococcus aureus [5] = assay: Antibacterial activity against drug-resistant Staphylococcus aureus clinical isolate M20 incubated for 16 to 20 hrs by broth microdilution method; settings: time 16-20 hrs
Escherichia coli [6] = assay: Antibacterial activity against drug-resistant Escherichia coli clinical isolate 1322 incubated for 16 to 20 hrs by broth microdilution method; settings: time 16-20 hrs
Escherichia coli [7] = assay: Antibacterial activity against drug-resistant Escherichia coli clinical isolate 1333 incubated for 16 to 20 hrs by broth microdilution method; settings: time 16-20 hrs
Staphylococcus aureus [8] = assay: Bactericidal activity against Staphylococcus aureus ATCC25923 incubated for 20 to 24 hrs; settings: time 20-24 hrs
Staphylococcus aureus [9] = assay: Antibacterial activity against Staphylococcus aureus ATCC25923 incubated for 20 to 24 hrs; settings: time 20-24 hrs
Staphylococcus aureus [10] = assay: Ratio of MBC to MIC for Staphylococcus aureus ATCC25923 incubated for 20 to 24 hrs; settings: time 20-24 hrs
Enterococcus faecalis [11] = assay: Bactericidal activity against Enterococcus faecalis ATCC29212 incubated for 20 to 24 hrs; settings: time 20-24 hrs
Enterococcus faecalis [12] = assay: Antibacterial activity against Enterococcus faecalis ATCC29212 incubated for 20 to 24 hrs; settings: time 20-24 hrs
Enterococcus faecalis [13] = assay: Ratio of MBC to MIC for Enterococcus faecalis ATCC29212 incubated for 20 to 24 hrs; settings: time 20-24 hrs
Escherichia coli [14] = assay: Bactericidal activity against Escherichia coli ATCC25922 incubated for 20 to 24 hrs; settings: time 20-24 hrs
Escherichia coli [15] = assay: Antibacterial activity against Escherichia coli ATCC25922 incubated for 20 to 24 hrs; settings: time 20-24 hrs
Escherichia coli [16] = assay: Ratio of MBC to MIC for Escherichia coli ATCC25922 incubated for 20 to 24 hrs; settings: time 20-24 hrs
[17] = tested on: Stenotrophomonas maltophilia; assay: Bactericidal activity against Stenotrophomonas maltophilia ATCC17808 incubated for 20 to 24 hrs; settings: time 20-24 hrs
[18] = tested on: Stenotrophomonas maltophilia; assay: Antibacterial activity against Stenotrophomonas maltophilia ATCC17808 incubated for 20 to 24 hrs; settings: time 20-24 hrs
[19] = tested on: Stenotrophomonas maltophilia; assay: Ratio of MBC to MIC for Stenotrophomonas maltophilia ATCC17808 incubated for 20 to 24 hrs; settings: time 20-24 hrs

With `CC[C@H]1OC(=O)C[C@@H](O)[C@H](C)[C@@H](O[C@@H]2O[C@H](C)[C@@H](O)[C@H](N(C)C)[C@H]2O)[C@@H](CCNCc2cn(-c3cnc4ccccc4c3)nn2)C[C@@H](C)C(=O)/C=C/C(C)=C/[C@@H]1CNCc1ccc(C)cc1` the MIC (Staphylococcus aureus [1]) was 0.5 µg/mL (≈ 0.549 µM), the MIC (Escherichia coli [2]) was 1 µg/mL (≈ 1.1 µM) and the MIC (Enterococcus faecalis [3]) was 1 µg/mL (≈ 1.1 µM). For the same compound, the MIC [4] was 1 µg/mL (≈ 1.1 µM), the MIC (Staphylococcus aureus [5]) was 0.5 µg/mL (≈ 0.549 µM) and the MIC (Escherichia coli [6]) was 1 µg/mL (≈ 1.1 µM). It also gave an MIC (Escherichia coli [7]) of 4 µg/mL (≈ 4.39 µM), an MBC (Staphylococcus aureus [8]) of 1 µg/mL (≈ 1.1 µM) and an MIC (Staphylococcus aureus [9]) of 0.5 µg/mL (≈ 0.549 µM). It also gave a Ratio (Staphylococcus aureus [10]) of 2, an MBC (Enterococcus faecalis [11]) of 8 µg/mL (≈ 8.79 µM) and an MIC (Enterococcus faecalis [12]) of 1 µg/mL (≈ 1.1 µM). It also gave a Ratio (Enterococcus faecalis [13]) of 2, an MBC (Escherichia coli [14]) of 1 µg/mL (≈ 1.1 µM) and an MIC (Escherichia coli [15]) of 0.5 µg/mL (≈ 0.549 µM). It also gave a Ratio (Escherichia coli [16]) of 2, an MBC [17] of 4 µg/mL (≈ 4.39 µM) and an MIC [18] of 2 µg/mL (≈ 2.2 µM). For the same compound, the Ratio [19] was 2.
